Here are results for 23 compounds from patent US6737429B2, “Pyrrole derivatives” (Hoffmann-La Roche Inc., priority 2000, dated 2004).

The target of assay [1] is HIV-1 RT (Human immunodeficiency virus type 1 group M subtype B, UniProt P04585). The assay is described as follows: HIV-1 Reverse Transcriptase Assay: Inhibitor IC50 Determination. The note with it: purified recombinant enzyme, poly(rA)/oligo(dT)16 template-primer, 37° C. 30 min. It counts as biochemical. As for the experimental part:
HIV-1 Reverse Transcriptase Assay: Inhibitor IC50 Determination.
HIV-1 RT assay was carried out in 96-well Millipore filtermat NOB50 plates using purified recombinant enzyme and a poly(rA)/oligo(dT)16 template-primer in a total volume of 50 μL. The assay constituents were 50 mM Tris/HCl, 50 mM NaCl, 1 mM EDTA, 6 mM MgCl2, 5 μM dTTP, 0.1 μCi [^3H] dTTP, 5 μg/ml poly (rA) pre annealed to 2.5 μg/ml oligo (dT)16 and a range of inhibitor concentrations in a final concentration of 10% DMSO. Reactions were initiated by adding 5 nM HIV-1 RT and after incubation at 37° C. for 30 min, they were stopped by the addition of 50 μl ice cold 20% TCA and allowed to precipitate at 4° C. for 30 min. The precipitates were collected by applying vacuum to the plate and sequentially washing with 2×200 μl of 10% TCA and 2×200 μl 70% ethanol. Finally the plates were dried and radioactivity counted in a Wallac Microbeta 1450 after the addition of 15 μl scintillation fluid per well. IC50's were calculated by plotting % inhibition versus log10 inhibitor concentrations.

The test system of assay [2] is HXB2-strain of HIV in MT4 cells. The assay is described as follows: Antiviral assay: protection of HIV-infected MT4 cells from cell-death (MTT). It counts as cell-based. The settings on record: Human immunodeficiency virus 1, 120 h; MT4 cells infected with HXB2-strain of HIV, 5 d, MTT viability. As for the experimental part: Anti-HIV antiviral activity was assessed using an adaptation of the method of Pauwels et al. {Pauwels et al., 1988, J Virol Methods 20:309-321}. The method is based on the ability of compounds to protect HIV-infected T lymphoblastoid cells (MT4 cells) from cell-death mediated by the infection. The endpoint of the assay was calculated as the concentration of compound at which the cell viability of the culture was preserved by 50% (‘50% inhibitory concentration’, IC50). The cell viability of a culture was determined by the uptake of soluble, yellow 3-[4,5-dimethylthiazol-2-yl]-2,5-diphenyltetrazolium bromide (MTT) and its reduction to a purple insoluble formazan salt. After solubilization, spectrophotometric methods were employed to measure the amount of formazan product.
MT4 cells were prepared to be in logarithmic-phase growth and a total of 2×10^6 cells infected with the HXB2-strain of HIV at a multiplicity of 0.0001 infectious units of virus per cell in a total volume of between 200-500 microliters. The cells were incubated with virus for one h at 37° C. before removal of virus. The cells are then washed in 0.01 M phosphate buffered saline, pH 7.2 before being resuspensed in culture medium for incubation in culture with serial dilutions of test compound. The culture medium used was RPMI 1640 without phenol red, supplemented with penicillin, streptomycin, L-glutamine and 10% fetal calf serum (GM10).
Test compounds were prepared as 2 mM solutions in dimethyl sulphoxide (DMSO). Four replicate, serial 2-fold dilutions in GM10 were then prepared and 50 microliters amounts placed in 96-well plates over a final nanomolar concentration range of 625-1.22. Fifty microliters GM10 and 3.5×10^4 infected cells were then added to each well. Control cultures containing no cells (blank), uninfected cells (100% viability; 4 replicates) and infected cells without compound (total virus-mediated cell death; 4 replicates) were also prepared. The cultures were then incubated at 37° C. in a humidified atmosphere of 5% CO2 in air for 5 d.
A fresh solution of 5 mg/mL MTT was prepared in 0.01 M phosphate buffered saline, pH 7.2 and 20 microliters added to each culture. The cultures were further incubated as before for 2 h. They were then mixed by pipetting up and down and 170 microliters of Triton X-100 in acidified isopropanol (10% v/v Triton X-100 in 1:250 mixture of concentrated HCl in isopropanol). When the formazan deposit was fully solubilized by further mixing, the absorbance (OD) of the cultures was measured at 540 nm and 690 nm wavelength (690 nm readings were used as blanks for artifacts between wells). The percent protection for each treated culture was calculated using the equation: [formula]

`Cc1c(CO)c(C(C)C)c(Sc2cc(Cl)cc(Cl)c2)n1Cc1cccnc1`: the IC50 is 79 nM in assay [1] and 17.5 nM in assay [2]. The like results for `Cc1c(CO)c(C(C)C)c(Sc2cc(Cl)cc(Cl)c2)n1C` were, in that order, 930 nM and 580 nM. On to `Cc1c(CO)c(C(C)C)c(Sc2cccc(Cl)c2)n1Cc1cscn1`, for which the IC50 in assay [1] came out at 4120 nM. Consider `Cc1c(CO)c(C(C)C)c(Sc2ccccc2)n1Cc1ccncc1`, for which the IC50 in assay [1] turned out to be 260 nM; in assay [2] it was 11.5 nM. Regarding `Cc1c(CO)c(C(C)C)c(Sc2ccc(F)cc2Cl)n1Cc1ccncc1`, in assay [1], the IC50 is 5430 nM.

For the compound `Cc1c(CO)c(C(C)C)c(Sc2cc(Cl)ccc2Cl)n1Cc1ccncc1`, the figures for the IC50 in assay [1] and in assay [2] were 86 nM and 69 nM, respectively. Turning to `Cc1c(CO)c(-c2ccccc2)c(Sc2cc(Cl)cc(Cl)c2)n1Cc1ccncc1`, the 50% inhibitory concentration (IC50) was 493 nM in assay [1] and 407 nM in assay [2]. The like results for `CC(=O)NCc1c(C(C)C)c(Sc2cc(Cl)cc(Cl)c2)n(Cc2ccncc2)c1C` were, in that order, 198 nM and 32 nM. The like results for `Cc1cc(C(C)C)c(Sc2cc(Cl)cc(Cl)c2)n1Cc1ccncc1` were, in that order, 117 nM and 44 nM.

With `Cc1c(CN=[N+]=[N-])c(C(C)C)c(Sc2cc(Cl)cc(Cl)c2)n1Cc1ccncc1`, the IC50 in assay [1] was 91 nM; in assay [2], 16 nM. On to `COC(=O)NCc1c(C(C)C)c(Sc2cc(Cl)cc(Cl)c2)n(Cc2ccncc2)c1C`, for which the IC50 in assay [1] turned out to be 90 nM. `COCc1c(C(C)C)c(Sc2cc(Cl)cc(Cl)c2)n(Cc2ccncc2)c1C`: the IC50 in assay [1] is 658 nM; in assay [2], 91 nM. The like results for `CC(C)c1cc(CO)n(Cc2ccncc2)c1Sc1cc(Cl)cc(Cl)c1` were, in that order, 289 nM and 183 nM. For the compound `CC(=O)/C=C/c1cc(C(C)C)c(Sc2cc(Cl)cc(Cl)c2)n1Cc1ccncc1`, in assay [1], the concentration for half-maximal inhibition (IC50) stood at 972 nM. `Cc1c(C#N)c(-c2ccccc2)c(Sc2cc(Cl)cc(Cl)c2)n1Cc1ccncc1`: the IC50 in assay [1] stood at 2450 nM. For `Cc1c(CO)c(C)n(Cc2ccncc2)c1Sc1cc(Cl)cc(Cl)c1`, the half-maximal inhibitory concentration (IC50) in assay [1] came to 287 nM; in assay [2], 49 nM. On the same counts, the results for `Cc1c(C(N)=O)c(C(C)C)c(Sc2cc(Cl)cc(Cl)c2)n1Cc1ccncc1` are 150 nM and 22 nM. The like results for `Cc1c(C(C)C)c(Sc2cc(Cl)cc(Cl)c2)n(Cc2ccncc2)c1C` were, in that order, 125 nM and 94 nM.

As to `Cc1c(CNC(=O)c2ccccc2)c(C(C)C)c(Sc2cc(Cl)cc(Cl)c2)n1Cc1ccncc1`, the IC50 was determined as 283 nM in assay [1] and 84 nM in assay [2]. On the same counts, the results for `CC(C)c1cc(COC(N)=O)n(Cc2ccncc2)c1Sc1cc(Cl)cc(Cl)c1` are 33 nM and 16 nM. On the same counts, the results for `CCc1c(CO)c(C(C)C)c(Sc2cc(Cl)cc(Cl)c2)n1Cc1ccncc1` are 43 nM and 11 nM. The like results for `CC(C)c1c(CO)c(C(C)C)n(Cc2ccncc2)c1Sc1cccc(Cl)c1` were, in that order, 272 nM and 110 nM. On to `CC(C)c1c(CO)c(CO)n(Cc2ccncc2)c1Sc1cc(Cl)cc(Cl)c1`, for which the IC50 in assay [1] was 60 nM; in assay [2] it was 10 nM.

Usually IC50 stands for the concentration at which inhibition is half-maximal.
